Experimental data published in the supplement of paper PMC4862054.

Experiments:
Settings in all cases: incubation time: 72 h
MFM-223 [1] = experiment: normalised response (% of control), CellTox Green; higher = less cell death (100 = DMSO, 0 = benzethonium chloride kill control)
Outline: (§1)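 Two readouts were taken after 72 h: CellTox Green fluorescence (485/520 nm) first, then CellTiter-Glo luminescence after 10 min at room temperature. Breast cancer cell lines had been seeded as 20 µl suspension into 384-well plates holding compound at 5 concentrations in 10-fold steps across a compound-specific 10,000-fold range. Each value is a normalised signal at a single concentration, with plates scaled to 0.1 % DMSO (100) and a positive kill control (0).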

CAL-120 [2] = experiment: as above
Outline: as §1

HCC1937 [3] = experiment: as above
Outline: as §1

MDA-MB-436 [4] = experiment: as above
Outline: as §1

DU-4475 [5] = experiment: as above
Outline: as §1

Hs578T [6] = experiment: as above
Outline: as §1

MDA-MB-231 [7] = experiment: as above
Outline: as §1

HCC1599 [8] = experiment: as above
Outline: as §1

MDA-MB-453 [9] = experiment: as above
Outline: as §1

BT-549 [10] = experiment: as above
Outline: as §1

CAL-148 [11] = experiment: as above
Outline: as §1

HCC1143 [12] = experiment: as above
Outline: as §1

CAL-51 [13] = experiment: as above
Outline: as §1

MCF-10A [14] = experiment: as above
Outline: as §1

CAL-85-1 [15] = experiment: as above
Outline: as §1

BT-474 [16] = experiment: as above
Outline: as §1

MFM-223 [17] = experiment: normalised response (% of control), CellTiter-Glo; higher = more viable cells (100 = DMSO, 0 = benzethonium chloride kill control)
Experimental: (§2)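 DSRT, 72 h incubation, CellTox Green / CellTiter-Glo readout. Signal is normalised to DMSO and benzethonium chloride controls. Value is the normalised response at the highest dose.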

CAL-120 [18] = experiment: as above
Experimental: as §2

HCC1937 [19] = experiment: as above
Experimental: as §2

MDA-MB-436 [20] = experiment: as above
Experimental: as §2

MDA-MB-468 [21] = experiment: as above
Experimental: as §2

DU-4475 [22] = experiment: as above
Experimental: as §2

HDQ-P1 [23] = experiment: as above
Experimental: as §2

Hs578T [24] = experiment: as above
Experimental: as §2

MDA-MB-231 [25] = experiment: as above
Experimental: as §2

HCC1599 [26] = experiment: as above
Experimental: as §2

MDA-MB-453 [27] = experiment: as above
Experimental: as §2

BT-549 [28] = experiment: as above
Experimental: as §2

CAL-148 [29] = experiment: as above
Experimental: as §2

HCC1143 [30] = experiment: as above
Experimental: as §2

SK-BR-3 [31] = experiment: as above
Experimental: as §2

CAL-51 [32] = experiment: as above
Experimental: as §2

MCF-10A [33] = experiment: as above
Experimental: as §2

CAL-85-1 [34] = experiment: as above
Experimental: as §2

BT-474 [35] = experiment: as above
Experimental: as §2

MFM-223 [36] = experiment: normalised response (% of control), CellTiter-Glo; higher = more viable cells (100 = DMSO, 0 = benzethonium chloride kill control); remark: listed apart in the source
Outline: as §1

CAL-120 [37] = experiment: as above; remark: listed apart in the source
Outline: as §1

HCC1937 [38] = experiment: as above; remark: listed apart in the source
Outline: as §1

MDA-MB-436 [39] = experiment: as above; remark: listed apart in the source
Outline: as §1

MDA-MB-468 [40] = experiment: as above; remark: listed apart in the source
Outline: as §1

DU-4475 [41] = experiment: as above; remark: listed apart in the source
Outline: as §1

HDQ-P1 [42] = experiment: as above; remark: listed apart in the source
Outline: as §1

Hs578T [43] = experiment: as above; remark: listed apart in the source
Outline: as §1

MDA-MB-231 [44] = experiment: as above; remark: listed apart in the source
Outline: as §1

HCC1599 [45] = experiment: as above; remark: listed apart in the source
Outline: as §1

MDA-MB-453 [46] = experiment: as above; remark: listed apart in the source
Outline: as §1

BT-549 [47] = experiment: as above; remark: listed apart in the source
Outline: as §1

CAL-148 [48] = experiment: as above; remark: listed apart in the source
Outline: as §1

HCC1143 [49] = experiment: as above; remark: listed apart in the source
Outline: as §1

SK-BR-3 [50] = experiment: as above; remark: listed apart in the source
Outline: as §1

CAL-51 [51] = experiment: as above; remark: listed apart in the source
Outline: as §1

MCF-10A [52] = experiment: as above; remark: listed apart in the source
Outline: as §1

CAL-85-1 [53] = experiment: as above; remark: listed apart in the source
Outline: as §1

BT-474 [54] = experiment: as above; remark: listed apart in the source
Outline: as §1

MDA-MB-468 [55] = experiment: normalised response (% of control), CellTox Green; higher = less cell death (100 = DMSO, 0 = benzethonium chloride kill control)
Outline: as §1

HDQ-P1 [56] = experiment: as above
Outline: as §1

| Structure (SMILES) | normalised response (MFM-223 [1]) [%] | normalised response (CAL-120 [2]) [%] | normalised response (HCC1937 [3]) [%] | normalised response (MDA-MB-436 [4]) [%] | normalised response (DU-4475 [5]) [%] | normalised response (Hs578T [6]) [%] | normalised response (MDA-MB-231 [7]) [%] | normalised response (HCC1599 [8]) [%] | normalised response (MDA-MB-453 [9]) [%] | normalised response (BT-549 [10]) [%] | normalised response (CAL-148 [11]) [%] | normalised response (HCC1143 [12]) [%] | normalised response (CAL-51 [13]) [%] | normalised response (MCF-10A [14]) [%] | normalised response (CAL-85-1 [15]) [%] | normalised response (BT-474 [16]) [%] | normalised response (MFM-223 [36]) [%] | normalised response (CAL-120 [37]) [%] | normalised response (MDA-MB-468 [55]) [%] | normalised response (HDQ-P1 [56]) [%] | further results |
| --- | --- | --- | --- | --- | --- | --- | --- | --- | --- | --- | --- | --- | --- | --- | --- | --- | --- | --- | --- | --- | --- |
| C[C@]12CC[C@@H]3c4ccc(OC(=O)N(CCCl)CCCl)cc4CC[C@H]3[C@@H]1CC[C@@H]2O [Estramustine] (10000 nM) | 96.7 | 98.3 | 81.2 | 99.6 | 96.4 | 79.7 | 102 | 95 | 96.2 | 58 | 101 | 110 | 74 | 106 | 130 | 99 | – | – | – | – | normalised response (MFM-223 [17]): 85.9%; normalised response (CAL-120 [18]): 103%; normalised response (HCC1937 [19]): 91.7%; normalised response (MDA-MB-436 [20]): 91.7%; normalised response (MDA-MB-468 [21]): 87.7%; normalised response (DU-4475 [22]): 85.5%; normalised response (HDQ-P1 [23]): 105%; normalised response (Hs578T [24]): 92.7%; normalised response (MDA-MB-231 [25]): 96.6%; normalised response (HCC1599 [26]): 95.5%; normalised response (MDA-MB-453 [27]): 92.4%; normalised response (BT-549 [28]): 106%; normalised response (CAL-148 [29]): 78.5%; normalised response (HCC1143 [30]): 97.5%; normalised response (SK-BR-3 [31]): 87.4%; normalised response (CAL-51 [32]): 93.3%; normalised response (MCF-10A [33]): 88%; normalised response (CAL-85-1 [34]): 94.2%; normalised response (BT-474 [35]): 95% |
| O=NN(CCCl)C(=O)NCCCl [Carmustine] (100 nM) | 101 | 95.2 | 103 | 61.7 | 95.1 | 100 | 100 | 97.9 | 91.5 | 90.8 | 100 | 101 | 99.1 | 93.4 | 101 | 99.1 | 98.3 | 95.5 | 52.9 | 106 | normalised response (HCC1937 [38]): 95.8%; normalised response (MDA-MB-436 [39]): 101%; normalised response (MDA-MB-468 [40]): 101%; normalised response (DU-4475 [41]): 101%; normalised response (HDQ-P1 [42]): 100%; normalised response (Hs578T [43]): 105%; normalised response (MDA-MB-231 [44]): 97.3%; normalised response (HCC1599 [45]): 88%; normalised response (MDA-MB-453 [46]): 101%; normalised response (BT-549 [47]): 111%; normalised response (CAL-148 [48]): 92.3%; normalised response (HCC1143 [49]): 100%; normalised response (SK-BR-3 [50]): 99.7%; normalised response (CAL-51 [51]): 85%; normalised response (MCF-10A [52]): 92.5%; normalised response (CAL-85-1 [53]): 101%; normalised response (BT-474 [54]): 97.7% |
| C[C@]1(O)C[C@@H](c2nc(-c3ccc4ccc(-c5ccccc5)nc4c3)c3c(N)nccn32)C1 [Linsitinib] (10000 nM) | 89.9 | 97.5 | 105 | – | 97.4 | 68.2 | 65 | 101 | 99.2 | 111 | 98.4 | 119 | 95.4 | 101 | 89.2 | 95.6 | – | – | 96.4 | 107 | normalised response (MFM-223 [17]): 83.1%; normalised response (CAL-120 [18]): 73.6%; normalised response (HCC1937 [19]): 88.7%; normalised response (MDA-MB-436 [20]): 85.5%; normalised response (MDA-MB-468 [21]): 59.2%; normalised response (DU-4475 [22]): 85.5%; normalised response (HDQ-P1 [23]): 53.5%; normalised response (Hs578T [24]): 91.9%; normalised response (MDA-MB-231 [25]): 77.2%; normalised response (HCC1599 [26]): 50.9%; normalised response (MDA-MB-453 [27]): 80%; normalised response (BT-549 [28]): 76%; normalised response (CAL-148 [29]): 88.2%; normalised response (HCC1143 [30]): 68.5%; normalised response (SK-BR-3 [31]): 49.9%; normalised response (CAL-51 [32]): 126%; normalised response (MCF-10A [33]): 26.1%; normalised response (CAL-85-1 [34]): 69.6%; normalised response (BT-474 [35]): 68.8% |
| CC(C)(C)c1cnc(CSc2cnc(NC(=O)C3CCNCC3)s2)o1 [SNS-032] (100 nM) | 91.5 | 90.5 | 53.3 | 59.7 | 95.2 | 60.3 | 4.71 | 88.5 | 94.9 | 88.6 | -22.6 | 85 | 39.7 | 84.7 | 35.7 | 86.4 | 76.9 | 70.9 | 94.5 | 57.6 | normalised response (HCC1937 [38]): 60.8%; normalised response (MDA-MB-436 [39]): 27.9%; normalised response (MDA-MB-468 [40]): 12.6%; normalised response (DU-4475 [41]): 86.9%; normalised response (HDQ-P1 [42]): 44.2%; normalised response (Hs578T [43]): 55.6%; normalised response (MDA-MB-231 [44]): 29.7%; normalised response (HCC1599 [45]): 90.2%; normalised response (MDA-MB-453 [46]): 46.2%; normalised response (BT-549 [47]): 20.3%; normalised response (CAL-148 [48]): 42.8%; normalised response (HCC1143 [49]): 36.6%; normalised response (SK-BR-3 [50]): 33.1%; normalised response (CAL-51 [51]): 31.9%; normalised response (MCF-10A [52]): 79.4%; normalised response (CAL-85-1 [53]): 28.2%; normalised response (BT-474 [54]): 68.2% |
| O=C1CN2Cc3c(ccc(Cl)c3Cl)N=C2N1 [Anagrelide] (100 nM) | 68.7 | 98 | 103 | 105 | 98.5 | 104 | 96.2 | 86.8 | 92.5 | 77.3 | 100 | 108 | 51.3 | 100 | 104 | 99.4 | 101 | 96 | 146 | 101 | normalised response (HCC1937 [38]): 95.8%; normalised response (MDA-MB-436 [39]): 94.3%; normalised response (MDA-MB-468 [40]): 99.5%; normalised response (DU-4475 [41]): 96.9%; normalised response (HDQ-P1 [42]): 97.2%; normalised response (Hs578T [43]): 98.5%; normalised response (MDA-MB-231 [44]): 94.7%; normalised response (HCC1599 [45]): 104%; normalised response (MDA-MB-453 [46]): 111%; normalised response (BT-549 [47]): 105%; normalised response (CAL-148 [48]): 94.1%; normalised response (HCC1143 [49]): 101%; normalised response (SK-BR-3 [50]): 103%; normalised response (CAL-51 [51]): 63.1%; normalised response (MCF-10A [52]): 98.4%; normalised response (CAL-85-1 [53]): 97%; normalised response (BT-474 [54]): 93.7% |
